Earlier results as cited in PMC3099137 (Bioorganic & medicinal chemistry, 2011).

Columns and labels:
EGFR tyrosine kinase = conditions: read-out: IC50, inhibition of EGFR tyrosine kinase activity
[1] = mice, attributed to in vivo defluorination

IC50 (EGFR tyrosine kinase) [nM] | bone uptake (in words) [1] | SMILES
0.006 | – | CCOc1cc2ncnc(Nc3cccc(Br)c3)c2cc1OCC [diethoxy- derivative]
– | high bone uptake | COc1cc2ncnc(Nc3ccc([18F])c(Cl)c3)c2cc1OC [4-(3-chloro-4-[^18F]fluoroanilino)-6,7-dimethoxy-quinazoline]
0.025 | – | COc1cc2ncnc(Nc3cccc(Br)c3)c2cc1OC [PD153035, 6,7-dimethoxy-4-(3-bromoanilino)quinazoline]
